From PubChem BioAssay (NCI)
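48-hour exposure; five concentrations; linearly interpolated endpoints. TGI: concentration producing complete growth inhibition.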

How the values were obtained:
Test in all cases: NCI anticancer screen, dose series, 48 h
786-0 renal = system: 786-0 renal
A549 NSCLC = system: A549 NSCLC
ACHN renal = system: ACHN renal
BT-549 breast = system: BT-549 breast
CAKI-1 renal = system: CAKI-1 renal
CCRF-CEM leukemia = system: CCRF-CEM leukemia
COLO 205 colon = system: COLO 205 colon
DU-145 prostate = system: DU-145 prostate
EKVX NSCLC = system: EKVX NSCLC
HCC-2998 colon = system: HCC-2998 colon
HCT-116 colon = system: HCT-116 colon
HCT-15 colon = system: HCT-15 colon
HL-60(TB) leukemia = system: HL-60(TB) leukemia
HOP-62 NSCLC = system: HOP-62 NSCLC
HS 578T breast = system: HS 578T breast
HT29 colon = system: HT29 colon
IGROV1 ovarian = system: IGROV1 ovarian
K-562 leukemia = system: K-562 leukemia
KM12 colon = system: KM12 colon
LOX IMVI melanoma = system: LOX IMVI melanoma
M14 melanoma = system: M14 melanoma
MALME-3M melanoma = system: MALME-3M melanoma
MCF7 breast = system: MCF7 breast
MDA-MB-231 breast = system: MDA-MB-231 breast
MDA-MB-435 = system: MDA-MB-435
MDA-N = system: MDA-N
MOLT-4 leukemia = system: MOLT-4 leukemia
NCI-H226 lung = system: NCI-H226 lung
NCI-H23 lung = system: NCI-H23 lung
NCI-H522 lung = system: NCI-H522 lung
NCI/ADR-RES ovarian = system: NCI/ADR-RES ovarian
OVCAR-3 ovarian = system: OVCAR-3 ovarian
OVCAR-4 ovarian = system: OVCAR-4 ovarian
OVCAR-5 ovarian = system: OVCAR-5 ovarian
OVCAR-8 ovarian = system: OVCAR-8 ovarian
PC-3 prostate = system: PC-3 prostate
RPMI-8226 leukemia = system: RPMI-8226 leukemia
RXF 393 renal = system: RXF 393 renal
SF-268 CNS = system: SF-268 CNS
SF-295 CNS = system: SF-295 CNS
SF-539 CNS = system: SF-539 CNS
SK-MEL-2 melanoma = system: SK-MEL-2 melanoma
SK-MEL-28 melanoma = system: SK-MEL-28 melanoma
SK-MEL-5 melanoma = system: SK-MEL-5 melanoma
SK-OV-3 ovarian = system: SK-OV-3 ovarian
SN12C renal = system: SN12C renal
SNB-19 CNS = system: SNB-19 CNS
SNB-75 CNS = system: SNB-75 CNS
SW-620 colon = system: SW-620 colon
T-47D breast = system: T-47D breast
TK-10 renal = system: TK-10 renal
U251 CNS = system: U251 CNS
UACC-257 melanoma = system: UACC-257 melanoma
UACC-62 melanoma = system: UACC-62 melanoma
UO-31 renal = system: UO-31 renal
HOP-92 NSCLC = system: HOP-92 NSCLC
NCI-H460 lung = system: NCI-H460 lung
SR leukemia = system: SR leukemia

CC(C)[C@@H]1NC(=O)[C@H]2N=C(O[C@@H]2C)[C@@H]2CCCN2C(=O)[C@H](Cc2ccccc2)NC(=O)[C@@H]2CSC(=N2)[C@@H](Cc2ccccc2)NC(=O)[C@@H]2CSC1=N2
TGI (786-0 renal): > 50 µM
TGI (A549 NSCLC): > 50 µM
TGI (ACHN renal): > 50 µM
TGI (BT-549 breast): > 50 µM
TGI (CAKI-1 renal): > 50 µM
TGI (CCRF-CEM leukemia): > 50 µM
TGI (COLO 205 colon): > 50 µM
TGI (DU-145 prostate): > 50 µM
TGI (EKVX NSCLC): > 50 µM
TGI (HCC-2998 colon): > 50 µM
TGI (HCT-116 colon): > 50 µM
TGI (HCT-15 colon): > 50 µM
TGI (HL-60(TB) leukemia): 41.3 µM
TGI (HOP-62 NSCLC): > 50 µM
TGI (HS 578T breast): > 50 µM
TGI (HT29 colon): > 50 µM
TGI (IGROV1 ovarian): > 50 µM
TGI (K-562 leukemia): > 50 µM
TGI (KM12 colon): > 50 µM
TGI (LOX IMVI melanoma): > 50 µM
TGI (M14 melanoma): > 50 µM
TGI (MALME-3M melanoma): > 50 µM
TGI (MCF7 breast): > 50 µM
TGI (MDA-MB-231 breast): > 50 µM
TGI (MDA-MB-435): > 50 µM
TGI (MDA-N): > 50 µM
TGI (MOLT-4 leukemia): > 50 µM
TGI (NCI-H226 lung): > 50 µM
TGI (NCI-H23 lung): > 50 µM
TGI (NCI-H522 lung): > 50 µM
TGI (NCI/ADR-RES ovarian): > 50 µM
TGI (OVCAR-3 ovarian): > 50 µM
TGI (OVCAR-4 ovarian): > 50 µM
TGI (OVCAR-5 ovarian): > 50 µM
TGI (OVCAR-8 ovarian): > 50 µM
TGI (PC-3 prostate): > 50 µM
TGI (RPMI-8226 leukemia): 32.1 µM
TGI (RXF 393 renal): > 50 µM
TGI (SF-268 CNS): > 50 µM
TGI (SF-295 CNS): > 50 µM
TGI (SF-539 CNS): > 50 µM
TGI (SK-MEL-2 melanoma): > 50 µM
TGI (SK-MEL-28 melanoma): > 50 µM
TGI (SK-MEL-5 melanoma): > 50 µM
TGI (SK-OV-3 ovarian): > 50 µM
TGI (SN12C renal): > 50 µM
TGI (SNB-19 CNS): > 50 µM
TGI (SNB-75 CNS): 6.28 µM
TGI (SW-620 colon): > 50 µM
TGI (T-47D breast): > 50 µM
TGI (TK-10 renal): > 50 µM
TGI (U251 CNS): > 50 µM
TGI (UACC-257 melanoma): > 50 µM
TGI (UACC-62 melanoma): > 50 µM
TGI (UO-31 renal): > 50 µM

O=c1oc2ccccc2cc1/C=N/N1C(=S)N(c2ccccc2)C(=Nc2ccccc2)C1=Nc1ccccc1
TGI (786-0 renal): > 100 µM
TGI (A549 NSCLC): > 100 µM
TGI (ACHN renal): > 100 µM
TGI (BT-549 breast): > 100 µM
TGI (CAKI-1 renal): > 100 µM
TGI (COLO 205 colon): > 100 µM
TGI (DU-145 prostate): > 100 µM
TGI (EKVX NSCLC): > 100 µM
TGI (HCC-2998 colon): > 100 µM
TGI (HCT-116 colon): > 100 µM
TGI (HCT-15 colon): > 100 µM
TGI (HOP-62 NSCLC): > 100 µM
TGI (HOP-92 NSCLC): > 100 µM
TGI (HS 578T breast): > 100 µM
TGI (IGROV1 ovarian): > 100 µM
TGI (K-562 leukemia): > 100 µM
TGI (KM12 colon): > 100 µM
TGI (M14 melanoma): > 100 µM
TGI (MALME-3M melanoma): > 100 µM
TGI (MCF7 breast): > 100 µM
TGI (MDA-MB-231 breast): > 100 µM
TGI (MDA-MB-435): > 100 µM
TGI (MDA-N): > 100 µM
TGI (MOLT-4 leukemia): > 100 µM
TGI (NCI-H226 lung): > 100 µM
TGI (NCI-H23 lung): > 100 µM
TGI (NCI-H460 lung): > 100 µM
TGI (NCI-H522 lung): > 100 µM
TGI (NCI/ADR-RES ovarian): > 100 µM
TGI (OVCAR-3 ovarian): > 100 µM
TGI (OVCAR-5 ovarian): > 100 µM
TGI (OVCAR-8 ovarian): > 100 µM
TGI (PC-3 prostate): > 100 µM
TGI (RPMI-8226 leukemia): > 100 µM
TGI (RXF 393 renal): > 100 µM
TGI (SF-268 CNS): > 100 µM
TGI (SF-295 CNS): > 100 µM
TGI (SF-539 CNS): > 100 µM
TGI (SK-MEL-2 melanoma): > 100 µM
TGI (SK-MEL-28 melanoma): > 100 µM
TGI (SK-MEL-5 melanoma): > 100 µM
TGI (SK-OV-3 ovarian): > 100 µM
TGI (SN12C renal): > 100 µM
TGI (SNB-19 CNS): > 100 µM
TGI (SNB-75 CNS): > 100 µM
TGI (SR leukemia): > 100 µM
TGI (SW-620 colon): > 100 µM
TGI (T-47D breast): > 100 µM
TGI (TK-10 renal): > 100 µM
TGI (U251 CNS): > 100 µM
TGI (UACC-257 melanoma): > 100 µM
TGI (UACC-62 melanoma): > 100 µM
TGI (UO-31 renal): > 100 µM
